Assay results published in US4874760A, “4,7-dihydroisothiazolo(5,4-b)pyridine derivatives and cardiovascular treating agents containing said derivatives” (Toa Eiyo, Ltd., priority 1987, dated 1989).
Like-named read-outs stand apart in the source and are kept apart here.

Assays:
[1] = tested on: KCl-induced contraction of helical blood vessel specimen (artery); test: Test on calcium antagonizing activity (KCl-induced contraction of helical blood vessel specimen); set-up: species or system rabbit; details: contraction height at 40 mM KCl taken as 100%, 10 minutes after test compound, 37° C., read-out: ED50 (concentration which inhibits the contraction height of the control to an extent of 50%)
Description: Female and male rabbits weighing 2 to 3 kg were used. They were anesthetized by intravenous injection of pentobarbital sodium, and sacrificed by bleeding from the femoral arteries. Immediately then, the artery was extracted from the chest, and a helical blood vessel specimen was prepared.

[2] = tested on: systolic blood pressure, spontaneously hypertensive rats; test: Antihypertensive activity test; format: in vivo, rat (male spontaneously hypertensive); details: oral
Excerpt: Variations in systolic blood pressure were periodically measured by a programmed electrosphygmomanometer-type blood pressure measuring device (NARCO, PE-300).

Row | SMILES | IC50 ([1]; 10 min) [nM] | Systolic blood pressure (maximum variation) ([2]; 1 mg/kg) [mmHg] | Systolic blood pressure (maximum variation) ([2]; 3 mg/kg) [mmHg] | Systolic blood pressure (maximum variation) ([2]; 10 mg/kg) [mmHg] | Systolic blood pressure (maximum variation) ([2]; 30 mg/kg) [mmHg] | IC50 ([1]; Oryctolagus cuniculus, 10 min) [nM] | IC50 [1] [nM]
1 | CCOC(=O)C1=C(C)Nc2snc(CCN3CCN(c4ccccc4)CC3)c2C1c1cccc([N+](=O)[O-])c1 (single isomer, unassigned; (+)) [Ig, (+)-ethyl 3-[2-(4-phenyl-1-piperazinyl)ethyl]-6-methyl-4-(3-nitrophenyl)-4,7-dihydroisothiazolo[5,4-b]pyridine-5-carboxylate] | > 300 | – | – | – | – | – | –
2 | CCOC(=O)C1=C(C)Nc2snc(CCN3CCN(c4ccccc4)CC3)c2C1c1cccc([N+](=O)[O-])c1 (single isomer, unassigned; (-)) [Ih, (-)-ethyl 3-[2-(4-phenyl-1-piperazinyl)ethyl]-6-methyl-4-(3-nitrophenyl)-4,7-dihydroisothiazolo[5,4-b]pyridine-5-carboxylate] | 25 | -36 | -93 | -137 | – | – | –
3 | CCOC(=O)C1=C(C)Nc2snc(CN(C)CCc3ccc(OC)c(OC)c3)c2C1c1cccc([N+](=O)[O-])c1 (centres unmarked) [Ia, ethyl 3-[N-(2-(3,4-dimethoxyphenyl)ethyl)-N-methylaminomethyl]-6-methyl-4-(3-nitrophenyl)-4,7-dihydroisothiazolo[5,4-b]pyridine-5-carboxylate] | – | -6 | -26 | -82 | -119 | 60 | –
4 | CCOC(=O)C1=C(C)Nc2snc(CN(C)CCCOc3cccc(OC)c3)c2C1c1cccc([N+](=O)[O-])c1 (centres unmarked) [Ib, ethyl 3-[N-(3-(3-methoxyphenoxy)propyl)-N-methylaminomethyl]-6-methyl-4-(3-nitrophenyl)-4,7-dihydroisothiazolo[5,4-b]pyridine-5-carboxylate] | – | – | -30 | -76 | -108 | 62 | –
5 | COc1ccc(CCN(C)Cc2nsc3c2C(c2cccc([N+](=O)[O-])c2)C(C(=O)OCCN(C)Cc2ccccc2)=C(C)N3)cc1OC (centres unmarked) [Ic, 2-(N-benzyl-N-methylamino)ethyl 3-[N-(2-(3,4-dimethoxyphenyl)ethyl)-N-methylaminomethyl]-6-methyl-4-(3-nitrophenyl)-4,7-dihydroisothiazolo[5,4-b]pyridine-5-carboxylate] | – | – | -37 | -92 | -135 | 225 | –
6 | CC1=C(C(=O)OCCN(C)Cc2ccccc2)C(c2cccc([N+](=O)[O-])c2)c2c(CN3CCN(c4ccc(F)cc4)CC3)nsc2N1 (centres unmarked) [Id, 2-(N-benzyl-N-methylamino)ethyl 3-[4-(4-fluorophenyl)-1-piperazinylmethyl]-6-methyl-4-(3-nitrophenyl)-4,7-dihydroisothiazolo[5,4-b]pyridine-5-carboxylate] | – | -30 | -65 | -132 | -142 | > 300 | –
7 | CCOC(=O)C1=C(C)Nc2snc(CCN3CCN(c4ccccc4)CC3)c2C1c1cccc([N+](=O)[O-])c1 (centres unmarked) [Ie, ethyl 3-[2-(4-phenyl-1-piperazinyl)ethyl]-6-methyl-4-(3-nitrophenyl)-4,7-dihydroisodithiazolo[5,4-b]pyridine-5-carboxylate] | – | -41 | -51 | -101 | – | 33 | –
8 | CCOC(=O)C1=C(C)Nc2snc(CCN3CCN(c4ccc(F)cc4)CC3)c2C1c1cccc([N+](=O)[O-])c1 (centres unmarked) [If, ethyl 3-[2-(4-(4-fluorophenyl)-1-piperazinyl)ethyl]-6-methyl-4-(3-nitrophenyl)-4,7-dihyhdroisothiazolo[5,4-b]pyridine-5-carboxylate] | – | -47 | -54 | -102 | – | – | 63.8
9 | COC(=O)C1=C(C)NC(C)=C(C(=O)OC)C1c1ccccc1[N+](=O)[O-] [Nifedipine, reference compound] | – | -29 | -42 | -71 | – | 19.6 | –
